Measurements as given in publication PMC7696255, “In-Silico Identified New Natural Sortase A Inhibitors Disrupt S. aureus Biofilm Formation” (International Journal of Molecular Sciences, 2020).
Converted amounts (≈) assume the structure as drawn. Read-outs that look alike come from different tables or passages of the source.

Experiments:
[1] = tested on: adherence of S. aureus Newman to fibrinogen; test: Fibrinogen binding assay; assay type: cell-based, Staphylococcus aureus
Procedure: Fibrinogen binding assay was completed as described but with slight revision. A flat-bottom 96-well plate was covered with fibrinogen protein by adding 50 µL of 20 µg/mL of fibrinogen protein from bovine plasma diluted in saline and incubated at 4 °C for 24 h. The coated plates were gently rinsed twice with PBS and blocked for 60 min with 4% bovine serum albumin (BSA). The plates were then washed 3 times with PBS. For this assay, S. aureus Newman strain was cultivated in TSB at 37 °C to exponential phase (OD600 = 0.5) and then the bacterial culture was incubated with various concentrations of test compound or control for 2.5 h. Then the cells were pelleted by centrifugation at 10,000× g for 10 min, the supernatants were removed and the cell pellets stored at −20 °C. The following day, cell pellets were suspended in PBS and dispersed in 100 μL aliquots to distinct wells of fibrinogen-coated 96-well plates. After 2 h of growth at 37 °C, the bacterial supernatant was discarded and the wells were rinsed gently with 150 µl PBS. Then the bacterial cells were fixed with 2% (v/v) glutaraldehyde and incubated for 30 min at 25 °C. After a wash with PBS, bound cells were stained with 0.1% crystal violet dye for 15 min. Plates were rinsed twice again with PBS, enclosed with aluminum foil, then stored at room temperature to dry overnight. On the next day absorbance was measured at 570 nm. The results were described as the percent of adhesion inhibition normalized to the wild type control. Two independent experiments were performed in triplicate to ensure reproducibility.

S. aureus sortase A [2] = biological target: T1, S. aureus sortase A (Staphylococcus aureus, UniProt Q2FV99); test: SrtA enzyme inhibition FRET assay, 5-FAM/QXL 520 substrate; assay type: biochemical; settings: Sortase A IC50, 5-FAM/QXL substrate; 10 min
T1 construct: purchased AnaSpec AS-72229
Procedure: (§1) The enzymatic reactions were carried out in black, low-binding polystyrene 384 well plates (Greiner Bio-One). […] SrtA was pre-incubated in the reaction buffer with compounds for 1 h at room temperature prior to the addition of the FRET substrate. Assays were performed in 50 µL reactions with 50 ng of S. aureus sortase A and 25 µM of DABCYL-LPETG-EDANS substrate or 1 µM of 5-FAM/QXL^TM 520 substrate. The inhibitory activity of the compounds was determined by monitoring the rise in fluorescence intensity over 24 h at Ex/Em = 336 nm/490 nm for the DABCYL/EDANS substrate and Ex/Em = 490 nm/520 nm for the 5-FAM/QXL 520 substrate on a Tecan Infinite M1000 Pro reader.
(§2) Raw fluorescence data were corrected for autofluorescence before computing percentage inhibition values. These percentage inhibition values were plotted against compound concentration using GraphPad Prism version 8.0 by nonlinear regression analysis using least squares fit method for IC50 determination. Testing was performed twice to ensure reproducibility of results.

[3] = tested on: S. aureus ATCC 33591 (MRSA) pre-formed biofilms; test: Biofilm inhibitory assay (crystal violet), pre-formed biofilms; assay type: cell-based, Staphylococcus aureus
Procedure: (§3) The effectiveness of SrtA inhibitors in reducing biofilm formation and growth was assessed using the crystal violet (CV) biofilm assay with the following modifications. TSB with 2% glucose (TSB without glucose for E. coli) was inoculated with 10^5 CFU/mL of S. aureus and E. coli overnight cultures. A total of 90µl of this cell suspension was then dispensed into 96-well microtiter plates containing 10 µL of different concentrations of the SrtA inhibitors. After 24 h growth at 37 °C the plates were washed with PBS to remove unbound cells and heat fixed at 60 °C for 30 min. Next, the wells were stained with 0.1% crystal violet solution for 15 min at room temperature. At the completion of the incubation plates were washed 3 times with PBS and dried. Then the crystal violet dye from the biofilm was solubilized with 200 µL of DMSO. A total of 100 µL of this solution was then moved to a new microtiter plate for absorbance measurement at 595 nm. For pre-formed biofilm assay, the plates were prepared and incubated as mentioned earlier, without SrtA inhibitors. After 24 h incubation, the culture supernatant was removed gently and biofilm carefully washed with sterile PBS. Next, 10 µL of different concentrations of SrtA inhibitors with 90 µL of TSB with 2% glucose were added carefully into the wells and incubated at 37 °C for 24 h. The amount of crystal violet staining of biofilm was measured as described above. The results were reported as percent inhibition normalized to the wild type control. Two independent experiments were performed in triplicate to ensure reproducibility.

[4] = tested on: S. aureus Newman pre-formed biofilms; test: as above; assay type: cell-based, Staphylococcus aureus; settings: CV assay
Procedure: as §3

HepG2 cells = test: Mammalian cell cytotoxicity assay (PrestoBlue); assay type: cell-based, human; settings: read-out: Mammalian cell lines IC50
Procedure: (§4) A549 and HepG2 cells were seeded at 1500 and 2500 cells per well, respectively, in 384-well microplates and incubated at 37 °C in the presence of 5% CO2. The next day, cells were treated with compounds then incubated for an additional 72 h. To assess the cytotoxic effect of the compounds PrestoBlue cell viability reagent (Life Technologies, Carlsbad, CA, USA) was used. After the 72 h incubation with compounds, the 384-well assay plates were incubated with this viability indicator dye for 2 h (A549) and 4 h (HepG2) before fluorescence reading at Ex/Em = 560 nm/590 nm on the Tecan Infinite M1000 Pro reader. Puromycin (data not shown) was used as the positive control against both cell lines. All tests were executed in triplicate on two separate experiments.

A549 cells = test: Mammalian cell cytotoxicity assay (PrestoBlue); assay type: cell-based, human; settings: read-out: Mammalian cell lines IC50
Procedure: as §4

[5] = tested on: S. aureus ATCC 33591 (MRSA) biofilm formation; test: Biofilm inhibitory assay (crystal violet), biofilm formation; assay type: cell-based, Staphylococcus aureus
Procedure: as §3

[6] = tested on: S. aureus Newman biofilm formation; test: as above; assay type: cell-based, Staphylococcus aureus; settings: CV assay
Procedure: as §3

S. aureus Newman = test: S. aureus whole cell assay (MIC, microbroth dilution); assay type: cell-based, Staphylococcus aureus; settings: 24 h
Procedure: (§5) Minimum inhibitory concentration (MIC) tests were performed according to procedures of the Clinical Laboratory Standards Institute (CLSI) with minor changes using the microbroth dilution technique in a 384-well setup. Inoculum of each S. aureus strain was prepared by suspending segregated colonies in sterile saline to a 0.5 McFarland standard. An inoculum of 2–8 × 10^5 CFU/mL was incubated with the compounds for 24 h at 37 °C. Gentamicin (data not shown) was incubated in the same manner as the test compounds and served as a positive control. The effect of the compounds on bacterial growth was calculated by quantifying the optical density at 600 nm on a microplate reader (Tecan, Infinite M1000, Salzburg, Austria). Dilutions of the inoculum were cultivated on agar to verify the validity of the inoculum seeding density and absence of contamination. All tests were executed in triplicate during two separate experiments.

[7] = tested on: S. aureus ATCC 33591 (MRSA); test: as above; assay type: cell-based, Staphylococcus aureus; settings: 24 h
Procedure: as §5

S. aureus ATCC 25923 = test: as above; assay type: cell-based, Staphylococcus aureus
Procedure: as §5

S. aureus sortase A [8] = biological target: T1, S. aureus sortase A; test: SrtA enzyme inhibition FRET assay, DABCYL-LPETG-EDANS substrate; assay type: biochemical
Procedure: as §1, §2

[9] = tested on: E. coli ATCC 25922 biofilm formation; test: Biofilm inhibitory assay (crystal violet), biofilm formation; assay type: cell-based; settings: in words; CV assay
Procedure: as §3, with “Next, 10 µL of different concentrations of SrtA inhibitors with 90 µL of TSB with 2% glucose were added carefully into the wells and incubated at 37 °C for 24 h.” left out, “The results were reported as percent inhibition normalized to the wild type control. Two independent experiments were performed in triplicate to ensure reproducibility.” left out

T1 sequence (Q2FV99 whole entry): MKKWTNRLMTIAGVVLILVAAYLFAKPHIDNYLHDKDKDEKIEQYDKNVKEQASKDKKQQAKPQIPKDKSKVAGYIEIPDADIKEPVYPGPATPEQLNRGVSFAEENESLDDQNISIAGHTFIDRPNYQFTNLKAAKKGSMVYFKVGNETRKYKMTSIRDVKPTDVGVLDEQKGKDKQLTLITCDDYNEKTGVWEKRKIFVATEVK

## CC(C)CCCc1c(O)ccc(C(=O)c2cc(Cl)c(Cl)[nH]2)c1O [Compound N2576, (4,5-dichloro-1H-pyrrol-2-yl)-[2,4-dihydroxy-3-(4-methyl-pentyl)-phenyl]-methanone]
[1]; Staphylococcus aureus, NEWMAN, read-out: Fibrinogen adherence Inhibition IC50
  IC50: 5.7 ± 0.8 µM
[1]; compared to untreated wildtype strain
  concentration giving ≥90% prevention of S. aureus Newman adherence to fibrinogen: 17 µM
S. aureus sortase A [2]
  IC50: 32 ± 6.3 µM
[3]; CV assay
  concentration giving >90% inhibition on MRSA preformed biofilms: 280 µM
[3]; Staphylococcus aureus, S. aureus ATCC 33591 (MRSA), pre-formed biofilms, read-out: Biofilm Inhibition IC50
  IC50: > 200 µM
[4]
  concentration giving >90% inhibition on preformed biofilms: 17 µM
[4]; Staphylococcus aureus, pre-formed biofilms, read-out: Biofilm Inhibition IC50
  IC50: 10 µM
HepG2 cells; 72 h
  IC50: 60 to 90 µM
HepG2 cells; Homo sapiens, HepG2, 72 h
  IC50: 65 ± 7.4 µM
A549 cells; 72 h
  IC50: 60 to 90 µM
A549 cells; Homo sapiens, A549, 72 h
  IC50: 88.1 ± 13 µM
[5]; CV assay
  concentration giving >90% inhibition on MRSA biofilm formation: 70 µM
[5]; Staphylococcus aureus, S. aureus ATCC 33591 (MRSA), biofilm formation, read-out: Biofilm Inhibition IC50
  IC50: 24.8 µM
[6]
  concentration giving >90% inhibition of biofilm formation: 4.4 µM
[6]; Staphylococcus aureus, NEWMAN, biofilm formation, read-out: Biofilm Inhibition IC50
  IC50: 2.9 µM
S. aureus Newman; Newman
  S. aureus MIC: 5 to 8 µM
S. aureus Newman; Staphylococcus aureus, NEWMAN
  MIC: 5.8 ± 1.3 µM (≈ 2.07 µg/mL)
[7]
  S. aureus MIC: 25 to 80 µM
[7]; Staphylococcus aureus
  MIC: 25.2 ± 5.5 µM (≈ 8.98 µg/mL)
S. aureus ATCC 25923; 24 h
  S. aureus MIC: 5 to 8 µM
S. aureus ATCC 25923; Staphylococcus aureus, ATCC25923, 24 h
  MIC: 6.3 ± 0.1 µM (≈ 2.24 µg/mL)
S. aureus sortase A [8]; Sortase A IC50, DABCYL-LPETG-EDANS substrate, 4 h
  IC50: 47 ± 4.2 µM
S. aureus sortase A [8]; SrtA enzymatic activity IC50, text summary, Figure 2A,B, both substrates
  IC50: < 50 µM
[9]
  effect on E. coli ATCC 25922 biofilm formation: did not show any effect
